Experimental data reported in patent US20100216751A1 (priority 2007, published 2010).
Several values for one entry are separate records, joined by “and”; a condition that tells them apart may be missing. Equal values may be shown once.

Assay: Pharmacokinetic evaluation of liquid bevirimat dosage forms, oral gavage, male Cynomolgus monkeys
Description: Six male Cynomolgus monkeys having an initial body weight of about 3.5 to about 4.5 kg are allowed 7 days to acclimate to their individual housing units. Monkeys are supplied with water and a commercial diet ad libitum prior to the study initiation. Food is withheld from the monkeys for a minimum of twelve hours before the study and during the study until four hours postdose when food is returned. Water is supplied ad libitum.
Test formulations are administered to the monkeys at time 0 on appropriate days. Test formulations will be dosed orally via oral gavage or intravenously.
Samples are drawn at the frequencies indicated below. Each blood sample (0.5 mL) is collected from the monkey's saphenous vein via a butterfly catheter and placed into a chilled polypropylene tube containing sodium heparin as the anticoagulant. Blood samples are centrifuged at a temperature of 4° C. at a speed of 3,000 rpm for 15 minutes. All samples are maintained chilled throughout processing. Plasma is collected after centrifugation, pipetted into a 2-mL polypropylene microtube, and frozen on dry-ice pending analytical evaluation.

[1] = oral, 50 mg/monkey, PG/glycerin/Vitamin ETPGS/Tween80/Plasdone C15 formulation, individual monkey
[2] = oral, 50 mg/monkey, PG/glycerin/Vitamin ETPGS/ethanol formulation, individual monkey
[3] = oral, 200 mg/monkey, PG/glycerin/Vitamin ETPGS/ethanol formulation, individual monkey

`C=C(C)[C@@H]1CC[C@]2(C(=O)O)CC[C@]3(C)[C@H](CC[C@@H]4[C@@]5(C)CC[C@H](OC(=O)CC(C)(C)C(=O)O)C(C)(C)[C@@H]5CC[C@]43C)[C@@H]12` [Bevirimat, 3-O-(3′,3′-dimethylsuccinyl)betulinic acid] showed a concentration at 6 hr (male, cynomolgus monkey, in vivo, po, 200 mg/monkey, Plasma Concentration, PG/glycerin/Vitamin ETPGS/ethanol formulation, 6.0 hr, individual monkey) of 79400 ng/mL, a concentration at 8 hr (male, cynomolgus monkey, in vivo, po, 200 mg/monkey, Plasma Concentration, PG/glycerin/Vitamin ETPGS/ethanol formulation, 8.0 hr, AVG) of 51300 ng/mL and a concentration at 8 hr (male, cynomolgus monkey, in vivo, po, 200 mg/monkey, Plasma Concentration, PG/glycerin/Vitamin ETPGS/ethanol formulation, 8.0 hr, individual monkey) of 53400 ng/mL. For the same compound, the concentration at 12 hr (male, cynomolgus monkey, in vivo, po, 200 mg/monkey, Plasma Concentration, PG/glycerin/Vitamin ETPGS/ethanol formulation, 12 hr, AVG) was 19600 ng/mL, the concentration at 12 hr (male, cynomolgus monkey, in vivo, po, 200 mg/monkey, Plasma Concentration, PG/glycerin/Vitamin ETPGS/ethanol formulation, 12 hr, individual monkey) was 15600 ng/mL and the concentration at 24 hr (male, cynomolgus monkey, in vivo, po, 200 mg/monkey, Plasma Concentration, PG/glycerin/Vitamin ETPGS/ethanol formulation, 24 hr, AVG) was 4840 ng/mL. The concentration at 48 hr (male, cynomolgus monkey, in vivo, po, 200 mg/monkey, Plasma Concentration, PG/glycerin/Vitamin ETPGS/ethanol formulation, 48 hr, AVG) was 2620 ng/mL, the concentration at 72 hr (male, cynomolgus monkey, in vivo, po, 200 mg/monkey, Plasma Concentration, PG/glycerin/Vitamin ETPGS/ethanol formulation, 72 hr, AVG) was 296 ng/mL and the “Plasma Concentration” value (oral, 50 mg/monkey, PG/glycerin/Vitamin ETPGS/Tween80/Plasdone C15 formulation, 0.25 hr, individual monkey) was 56.3 ng/mL and 67.8 ng/mL. The “Plasma Concentration” value (oral, 50 mg/monkey, PG/glycerin/Vitamin ETPGS/Tween80/Plasdone C15 formulation, 0.50 hr, individual monkey) was 409 ng/mL and 2660 ng/mL and 7590 ng/mL, the “Plasma Concentration” value (oral, 50 mg/monkey, PG/glycerin/Vitamin ETPGS/Tween80/Plasdone C15 formulation, 1.0 hr, individual monkey) was 1010 ng/mL and 17400 ng/mL and 56100 ng/mL and the “Plasma Concentration” value (oral, 50 mg/monkey, PG/glycerin/Vitamin ETPGS/Tween80/Plasdone C15 formulation, 2.0 hr, individual monkey) was 63500 ng/mL and 68500 ng/mL. For the same compound, the “Plasma Concentration” value (oral, 50 mg/monkey, PG/glycerin/Vitamin ETPGS/Tween80/Plasdone C15 formulation, 6.0 hr, individual monkey) was 36300 ng/mL and 29000 ng/mL, the “Plasma Concentration” value (oral, 50 mg/monkey, PG/glycerin/Vitamin ETPGS/Tween80/Plasdone C15 formulation, 8.0 hr, individual monkey) was 21800 ng/mL and 19000 ng/mL and the “Plasma Concentration” value (oral, 50 mg/monkey, PG/glycerin/Vitamin ETPGS/Tween80/Plasdone C15 formulation, 12 hr, individual monkey) was 9150 ng/mL and 6750 ng/mL. For the same compound, the “Plasma Concentration” value (oral, 50 mg/monkey, PG/glycerin/Vitamin ETPGS/Tween80/Plasdone C15 formulation, 24 hr, individual monkey) was 1490 ng/mL and 988 ng/mL, the “Plasma Concentration” value (oral, 50 mg/monkey, PG/glycerin/Vitamin ETPGS/Tween80/Plasdone C15 formulation, 48 hr, individual monkey) was 635 ng/mL and 174 ng/mL and 200 ng/mL and the “Plasma Concentration” value (oral, 50 mg/monkey, PG/glycerin/Vitamin ETPGS/Tween80/Plasdone C15 formulation, 72 hr, individual monkey) was “BLOQ”. For the same compound, the Cmax [1] was 63500 ng/mL and 68500 ng/mL, the t1/2 [1] was 5.3 h and 5.4 h and the “Plasma Concentration” value (oral, 50 mg/monkey, PG/glycerin/Vitamin ETPGS/ethanol formulation, 0.25 hr, individual monkey) was “BLOQ”. For the same compound, the “Plasma Concentration” value (oral, 50 mg/monkey, PG/glycerin/Vitamin ETPGS/ethanol formulation, 0.50 hr, individual monkey) was 268 ng/mL and 420 ng/mL and 49.7 ng/mL, the “Plasma Concentration” value (oral, 50 mg/monkey, PG/glycerin/Vitamin ETPGS/ethanol formulation, 1.0 hr, individual monkey) was 40200 ng/mL and 23100 ng/mL and the “Plasma Concentration” value (oral, 50 mg/monkey, PG/glycerin/Vitamin ETPGS/ethanol formulation, 2.0 hr, individual monkey) was 70800 ng/mL. The “Plasma Concentration” value (oral, 50 mg/monkey, PG/glycerin/Vitamin ETPGS/ethanol formulation, 4.0 hr, individual monkey) was 33200 ng/mL and 59800 ng/mL, the “Plasma Concentration” value (oral, 50 mg/monkey, PG/glycerin/Vitamin ETPGS/ethanol formulation, 6.0 hr, individual monkey) was 18100 ng/mL and 14000 ng/mL and 37000 ng/mL and the “Plasma Concentration” value (oral, 50 mg/monkey, PG/glycerin/Vitamin ETPGS/ethanol formulation, 8.0 hr, individual monkey) was 10600 ng/mL and 10000 ng/mL and 23600 ng/mL. The “Plasma Concentration” value (oral, 50 mg/monkey, PG/glycerin/Vitamin ETPGS/ethanol formulation, 12 hr, individual monkey) was 3390 ng/mL and 3450 ng/mL and 9100 ng/mL, the “Plasma Concentration” value (oral, 50 mg/monkey, PG/glycerin/Vitamin ETPGS/ethanol formulation, 24 hr, individual monkey) was 922 ng/mL and 1100 ng/mL and 2000 ng/mL and the “Plasma Concentration” value (oral, 50 mg/monkey, PG/glycerin/Vitamin ETPGS/ethanol formulation, 48 hr, individual monkey) was 62.6 ng/mL and 97.8 ng/mL and 286 ng/mL. For the same compound, the “Plasma Concentration” value (oral, 50 mg/monkey, PG/glycerin/Vitamin ETPGS/ethanol formulation, 72 hr, individual monkey) was “BLOQ”, the Cmax [2] was 50500 ng/mL and 70800 ng/mL and the “Dnzed AUCall” value [2] was 33692 ng·h/mL/mg/kg. For the same compound, the t1/2 [2] was 7.0 h and 7.4 h, the “Plasma Concentration” value (oral, 200 mg/monkey, PG/glycerin/Vitamin ETPGS/ethanol formulation, 0.25 hr, individual monkey) was 1040 ng/mL and 89.0 ng/mL and the “Plasma Concentration” value (oral, 200 mg/monkey, PG/glycerin/Vitamin ETPGS/ethanol formulation, 0.50 hr, individual monkey) was 10300 ng/mL and 1740 ng/mL. For the same compound, the “Plasma Concentration” value (oral, 200 mg/monkey, PG/glycerin/Vitamin ETPGS/ethanol formulation, 1.0 hr, individual monkey) was 88400 ng/mL and 41200 ng/mL, the “Plasma Concentration” value (oral, 200 mg/monkey, PG/glycerin/Vitamin ETPGS/ethanol formulation, 2.0 hr, individual monkey) was 232000 ng/mL and the “Plasma Concentration” value (oral, 200 mg/monkey, PG/glycerin/Vitamin ETPGS/ethanol formulation, 4.0 hr, individual monkey) was 138000 ng/mL. The “Plasma Concentration” value (oral, 200 mg/monkey, PG/glycerin/Vitamin ETPGS/ethanol formulation, 6.0 hr, individual monkey) was 76300 ng/mL, the “Plasma Concentration” value (oral, 200 mg/monkey, PG/glycerin/Vitamin ETPGS/ethanol formulation, 12 hr, individual monkey) was 23700 ng/mL and the “Plasma Concentration” value (oral, 200 mg/monkey, PG/glycerin/Vitamin ETPGS/ethanol formulation, 24 hr, individual monkey) was 2180 ng/mL and 7500 ng/mL. The “Plasma Concentration” value (oral, 200 mg/monkey, PG/glycerin/Vitamin ETPGS/ethanol formulation, 48 hr, individual monkey) was 547 ng/mL and 4700 ng/mL, the “Plasma Concentration” value (oral, 200 mg/monkey, PG/glycerin/Vitamin ETPGS/ethanol formulation, 72 hr, individual monkey) was 117 ng/mL and 474 ng/mL and the AUCall [3] was 1398.863 µg·h/mL. For the same compound, the Cmax [3] was 232000 ng/mL, the “Dnzed AUCall” value [3] was 27977 ng·h/mL/mg/kg and the t1/2 [3] was 10.1 h.
